One test addresses T1, Rat FAAH (Rattus norvegicus, UniProt P97612).
T1 construct: expressed in transfected cells
T1 sequence (P97612 1-579): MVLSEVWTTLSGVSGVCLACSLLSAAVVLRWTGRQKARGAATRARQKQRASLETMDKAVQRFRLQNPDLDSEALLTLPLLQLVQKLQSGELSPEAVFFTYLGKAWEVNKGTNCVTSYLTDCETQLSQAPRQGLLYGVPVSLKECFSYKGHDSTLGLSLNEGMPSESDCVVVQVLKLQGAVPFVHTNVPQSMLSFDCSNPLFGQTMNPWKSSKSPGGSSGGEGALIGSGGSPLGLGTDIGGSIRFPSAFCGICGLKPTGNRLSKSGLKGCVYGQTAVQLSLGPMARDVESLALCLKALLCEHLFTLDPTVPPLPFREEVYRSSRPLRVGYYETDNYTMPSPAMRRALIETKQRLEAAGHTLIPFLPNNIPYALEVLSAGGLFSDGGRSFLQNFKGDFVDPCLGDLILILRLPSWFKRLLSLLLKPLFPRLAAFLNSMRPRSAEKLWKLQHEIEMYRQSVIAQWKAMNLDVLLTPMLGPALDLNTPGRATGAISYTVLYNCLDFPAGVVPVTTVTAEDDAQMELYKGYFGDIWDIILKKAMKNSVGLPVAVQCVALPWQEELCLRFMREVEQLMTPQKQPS
As to the kind of experiment: Assay Method 2: FAAH assay, 3H-anandamide hydrolysis in cell homogenate (SK-N-MC cells transfected with rat FAAH). The class given is biochemical. To be noted: 3H-AEA 80 nM, rt 1 h, pH 9. The method, then: A. Transfection of Cells with Rat FAAH
(§1) A 10-cm tissue culture dish with a confluent monolayer of SK—N-MC cells was split 2 days (d) prior to transfection. Using sterile technique, the media was removed and the cells were detached from the dish by the addition of trypsin. One fifth of the cells were then placed onto a new 10-cm dish. Cells were grown in a 37° C. incubator with 5% CO2 in Minimal Essential Media Eagle with 10% Fetal Bovine Serum. After 2 d, cells were approximately 80% confluent. These cells were removed from the dish with trypsin and pelleted in a clinical centrifuge. The pellet was re-suspended in 400 μL complete media and transferred to an electroporation cuvette with a 0.4 cm gap between the electrodes. Supercoiled rat FAAH cDNA (1 μg) was added to the cells and mixed. The voltage for the electroporation was set at 0.25 kV, and the capacitance was set at 960 μF. After electroporation, the cells were diluted into complete media (10 mL) and plated onto four 10-cm dishes. Because of the variability in the efficiency of electroporation, four different concentrations of cells were plated. The ratios used were 1:20, 1:10, and 1:5, with the remainder of the cells being added to the fourth dish. The cells were allowed to recover for 24 h before adding the selection media (complete media with 600 μg/mL G418). After 10 d, dishes were analyzed for surviving colonies of cells. Dishes with well-isolated colonies were used. Cells from individual colonies were isolated and tested.
The assay mixture consisted of 50 μL of the cell homogenate, 10 μL of the test compound, and 40 μL of anandamide [1-^3H-ethanolamine] (^3H-AEA, Perkin-Elmer, 10.3 Ci/mmol), which was added last, for a final tracer concentration of 80 nM. The reaction mixture was incubated at rt for 1 h. During the incubation, 96-well Multiscreen filter plates (catalog number MAFCNOB50; Millipore, Bedford, Mass., USA) were loaded with 25 μL of activated charcoal (Multiscreen column loader, catalog number MACL09625, Millipore) and washed once with 100 μL of MeOH. […] After the 1 h incubation, 60 μL of the reaction mixture were transferred to the charcoal plates, which were then assembled on top of the DYNEX plates using Centrifuge Alignment Frames (catalog number MACF09604, Millipore). The unbound labeled ethanolamine was centrifuged through to the bottom plate (5 min at 2000 rpm), which was preloaded with the scintillant, as described above. The plates were sealed and left at rt for 1 h before counting on a Hewlett Packard TopCount.

For test [1], the target named is T2, FAAH (Homo sapiens, UniProt O00519).
T2 sequence (O00519 1-579): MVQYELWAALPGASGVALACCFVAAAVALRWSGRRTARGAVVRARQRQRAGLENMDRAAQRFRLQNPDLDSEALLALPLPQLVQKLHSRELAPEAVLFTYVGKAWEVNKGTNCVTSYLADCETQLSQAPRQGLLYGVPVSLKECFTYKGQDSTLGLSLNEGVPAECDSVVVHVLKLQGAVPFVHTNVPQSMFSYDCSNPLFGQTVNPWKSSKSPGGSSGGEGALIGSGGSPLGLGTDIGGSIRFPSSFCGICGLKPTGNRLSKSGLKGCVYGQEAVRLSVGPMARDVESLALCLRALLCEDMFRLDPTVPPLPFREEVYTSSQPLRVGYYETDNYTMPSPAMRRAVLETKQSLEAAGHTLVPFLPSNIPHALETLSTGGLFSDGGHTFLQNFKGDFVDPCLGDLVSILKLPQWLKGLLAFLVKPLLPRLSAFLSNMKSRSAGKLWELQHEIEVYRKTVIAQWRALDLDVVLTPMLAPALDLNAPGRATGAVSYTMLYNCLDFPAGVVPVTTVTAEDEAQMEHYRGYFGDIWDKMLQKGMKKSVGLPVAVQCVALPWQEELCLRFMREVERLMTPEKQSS
As to the kind of experiment: Assay Method 1B: FAAH assay, 3H-anandamide hydrolysis in cell homogenate (T84 or SK-N-MC cells transfected with human FAAH). On the set-up: expressed in transfected cells. The settings on record: 3H-AEA 80 nM, rt 1 h, pH 9. The class given is biochemical. The method, then:
as §1, with “Transfection of Cells with Human FAAH A 10-cm” for “A 10-cm”, “electrodes. Supercoiled human FAAH cDNA” for “electrodes. Supercoiled rat FAAH cDNA”, “and tested. […] The reaction mixture was incubated at rt for 1 h. During the incubation, 96-well Multiscreen filter plates (catalog number MAFCNOB50; Millipore, Bedford, Mass., USA) were loaded with 25 μL of activated charcoal (Multiscreen column loader, catalog number MACL09625, Millipore) and washed once with 100 μL of MeOH. Also during the incubation, 96-well DYNEX MicroLite plates (catalog number NL510410) were loaded with 100 μL of MicroScint40 (catalog number 6013641, Packard Bioscience, Meriden, Conn., USA). After the 1 h incubation, 60 μL of the reaction mixture were transferred to the charcoal plates, which were then assembled on top of the DYNEX plates using Centrifuge Alignment Frames (catalog number MACF09604, Millipore). The unbound labeled ethanolamine was centrifuged through to the bottom plate (5 min at 2000 rpm), which was preloaded with the scintillant, as described above. The plates were sealed and left at rt for 1 h before counting on a Hewlett Packard TopCount.” for “and tested.”

In test [2] the target is T3, FAAH (Rattus norvegicus, UniProt P97612).
T3 sequence (P97612 1-579): T1 sequence (P97612 1-579)
As to the kind of experiment: Assay Method 1A: FAAH enzyme assay, 14C-oleamide hydrolysis, solubilized liver plasma membrane extract.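 Note: ki obtained by Dixon analysis, taking the x-intercept of inhibitor concentration versus reciprocal rate plots at fixed substrate level and correcting for substrate concentration relative to Km.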
Protocol: Linear least squares fits were used for all reaction progress curves and R^2 values were consistently >0.97. […] Ki values were determined by the Dixon Method (x-intercepts of weighted linear fits of [I] versus 1/rate plots at constant substrate concentration, which were converted to Ki values using the formula Ki=−xint/[1+[S]/Km]).

A value given as a limit tells only on which side of the number the result lay.

What is called IC50 is the point on the concentration scale where inhibition reaches its midpoint. With `O=C(CCCCCCc1ccccc1)c1ncc(-c2cccc(C(=O)C(F)(F)F)c2)o1` [Example 5, 7-Phenyl-1-(5-(3-(2,2,2-trifluoroacetyl)phenyl)oxazol-2-yl)heptan-1-one], the IC50 on Rat FAAH turned out to be 500 nM; against FAAH [1], 40 nM.

Usually Ki stands for the dissociation constant of the complex between target and ligand, obtained from inhibition or displacement. Compound `Cc1ccc(-c2cnc(C(=O)CCCCCCc3ccccc3)o2)nc1` [Example 42, 1-(5-(5-Methylpyridin-2-yl)oxazol-2-yl)-7-phenylheptan-1-one] yielded a Ki at FAAH [2] of 3 nM.

For the compound `COc1ncc(-c2cnc(C(=O)CCCCCCc3ccccc3)o2)c(OC)n1` [Example 53, 1-(5-(2,4-Dimethoxypyrimidin-5-yl)oxazol-2-yl)-7-phenylheptan-1-one], at FAAH [2], the Ki is 26 nM.

Regarding `COc1cc(-c2cnc(C(=O)CCCCCCc3ccccc3)o2)nc(OC)n1` [Example 51, 1-(5-(2,6-Dimethoxypyrimidin-4-yl)oxazol-2-yl)-7-phenylheptan-1-one], affinity at FAAH [2] was put at a Ki of 5 nM.

As for `O=C(CCCCCCc1ccccc1)c1ncc(-c2ccc(C(=O)C(F)(F)F)cc2)o1` [Example 6, 7-Phenyl-1-(5-(4-(2,2,2-trifluoroacetyl)phenyl)oxazol-2-yl)heptan-1-one], the values for the concentration for half-maximal inhibition (IC50) at Rat FAAH and at FAAH [1] were 1700 nM and 260 nM, respectively.

For `N#Cc1cccc(-c2cnc(C(=O)CCCCCCc3ccccc3)o2)c1` [Example 17, 3-(2-(7-Phenylheptanoyl)oxazol-5-yl)benzonitrile], the values for the IC50 against Rat FAAH and on FAAH [1] were 520 nM and 9 nM, respectively.

As to `O=C(CCCCCCc1ccccc1)c1ncc(-c2ccc([N+](=O)[O-])cc2)o1` [Example 3, 1-(5-(4-Nitrophenyl)oxazol-2-yl)-7-phenylheptan-1-one], the 50% inhibitory concentration (IC50) against Rat FAAH came out at 500 nM; at FAAH [1], 110 nM.

Take `NC(=O)c1cccc(-c2cnc(C(=O)CCCCCCc3ccccc3)o2)c1` [Example 8, 3-(2-(7-Phenylheptanoyl)oxazol-5-yl)benzamide]: the 50% inhibitory concentration (IC50) against Rat FAAH was found to be 34 nM; against FAAH [1] it was 12 nM.

Consider `NC(=O)c1ccccc1-c1cnc(C(=O)CCCCCCc2ccccc2)o1` [Example 7, 2-(2-(7-Phenylheptanoyl)oxazol-5-yl)benzamide], for which the results for the 50% inhibitory concentration (IC50) against Rat FAAH and against FAAH [1] were 1800 nM and 160 nM, respectively.

`NS(=O)(=O)c1ccccc1-c1cnc(C(=O)CCCCCCc2ccccc2)o1` [Example 19, 2-(2-(7-Phenylheptanoyl)oxazol-5-yl)benzenesulfonamide]: on FAAH [1], the IC50 amounted to 2000 nM. The compound also returned a Ki at FAAH [2] of 1500 nM.

`O=C(CCCCCCc1ccccc1)c1ncc(-c2ncccc2C(=O)O)o1` [Example 40, 2-(2-(7-Phenylheptanoyl)oxazol-5-yl)nicotinic acid] gave an inhibition constant Ki at FAAH [2] of over 50 nM.

`O=C(CCCCCCc1ccccc1)c1ncc(-c2cc(C(F)(F)F)ccn2)o1` [Example 47, 7-Phenyl-1-(5-(4-(trifluoromethyl)pyridin-2-yl)oxazol-2-yl)heptan-1-one] gave a Ki on FAAH [2] of 4 nM.

In turn, `COc1ccccc1-c1cnc(C(=O)CCCCCCc2ccccc2)o1` [Example 13, 1-(5-(2-Methoxyphenyl)oxazol-2-yl)-7-phenylheptan-1-one] yielded an IC50 against FAAH [1] of 1900 nM. The compound also gave a Ki at FAAH [2] of 400 nM.

For `Nc1ccc(-c2cnc(C(=O)CCCCCCc3ccccc3)o2)cc1` [Example 29, 1-(5-(4-Aminophenyl)oxazol-2-yl)-7-phenylheptan-1-one], the IC50 at Rat FAAH is 980 nM; on FAAH [1], 280 nM.

At FAAH [2], `Cc1ccnc(-c2cnc(C(=O)CCCCCCc3ccccc3)o2)c1` [Example 43, 1-(5-(4-Methylpyridin-2-yl)oxazol-2-yl)-7-phenylheptan-1-one] returned a Ki of 1 nM.

At FAAH [2], `N#Cc1ccnc(-c2cnc(C(=O)CCCCCCc3ccccc3)o2)c1` [Example 46, 2-(2-(7-Phenylheptanoyl)oxazol-5-yl)isonicotinonitrile] showed an inhibition constant Ki of 2 nM.

In turn, `O=C(CCCCCCc1ccccc1)c1ncc(-c2cc([N+](=O)[O-])ccn2)o1` [Example 48, 1-(5-(4-Nitropyridin-2-yl)oxazol-2-yl)-7-phenylheptan-1-one] showed a Ki on FAAH [2] of 3 nM.

`COC(=O)c1ccnc(-c2cnc(C(=O)CCCCCCc3ccccc3)o2)c1` [Example 35, Methyl 2-(2-(7-phenylheptanoyl)oxazol-5-yl)isonicotinate] came in with a Ki at FAAH [2] of 1 nM.

`Cc1cccnc1-c1cnc(C(=O)CCCCCCc2ccccc2)o1` [Example 44, 1-(5-(3-Methylpyridin-2-yl)oxazol-2-yl)-7-phenylheptan-1-one] displayed a Ki on FAAH [2] of 15 nM.

As for `Nc1ccnc(-c2cnc(C(=O)CCCCCCc3ccccc3)o2)c1` [Example 49, 1-(5-(4-Aminopyridin-2-yl)oxazol-2-yl)-7-phenylheptan-1-one], the inhibition constant Ki at FAAH [2] worked out at 25 nM.

On to `Cc1cccc(-c2cnc(C(=O)CCCCCCc3ccccc3)o2)n1` [Example 41, 1-(5-(6-Methylpyridin-2-yl)oxazol-2-yl)-7-phenylheptan-1-one], for which the Ki on FAAH [2] stood at 3 nM.

In the case of `COc1ccnc(-c2cnc(C(=O)CCCCCCc3ccccc3)o2)c1` [Example 45, 1-(5-(4-Methoxypyridin-2-yl)oxazol-2-yl)-7-phenylheptan-1-one], the inhibitory constant (Ki) on FAAH [2] worked out at 2 nM.

The record behind these values is US7915270B2, “Oxazole ketones as modulators of fatty acid amide hydrolase” (The Scripps Research Institute, priority 2006, dated 2011).
